Non-standard residues stand in square brackets, D forms with d. Residues, ends and D or L forms follow the SMILES beside them. No end group written: not given here. *: point of attachment. NH(2-adamantyl) = C1C2CC3CC1CC(C2)C3N*; 2Nal = N[C@@H](Cc1ccc2ccccc2c1)C(=O)O; Sta = CC(C)C[C@H](N)[C@@H](O)CC(=O)O; NEtPhe = CCN[C@@H](Cc1ccccc1)C(=O)O; Isovaleryl = CC(C)CC(=O)*
How the values were obtained:
[1] = molecular target: T1, human renin (Homo sapiens, UniProt P00797); test: Inhibition of Human Renin; assay type: biochemical; details: angiotensin I formed by radioimmunoassay; considered active if inhibition was greater than 20%
T1 construct: tissue World Health Organization International Laboratory for Biological Standards (National Institute for Biological Standards and Control, London, England); host or cells: human kidney
T1 sequence (P00797 67-406): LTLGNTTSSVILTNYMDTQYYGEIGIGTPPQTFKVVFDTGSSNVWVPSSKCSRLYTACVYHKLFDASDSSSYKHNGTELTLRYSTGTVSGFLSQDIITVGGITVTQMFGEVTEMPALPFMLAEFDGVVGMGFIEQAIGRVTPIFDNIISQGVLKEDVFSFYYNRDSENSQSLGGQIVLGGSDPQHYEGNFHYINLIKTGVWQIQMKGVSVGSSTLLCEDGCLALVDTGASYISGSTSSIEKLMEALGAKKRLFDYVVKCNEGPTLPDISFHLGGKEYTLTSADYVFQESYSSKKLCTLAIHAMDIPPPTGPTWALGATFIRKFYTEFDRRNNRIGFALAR
Method: The renin inhibition activity of the compounds of this invention illustrated in the examples was tested by the following method.
International reference standard human renin, isolated from kidneys, was obtained from the World Health Organization International Laboratory for Biological Standards (National Institute for Biological Standards and Control, London, England). Renin activity is defined in "Goldblatt units" (GU), the quantity that, when injected directly into the blood stream of an unanesthetized dog, raises the direct mean femoral artery blood pressure by 30 mm Hg in about two minutes. E. Haas, L. Lewis, P. Scipione, and T. J. Koshy, Hypertension, 1, 112-117 (1979). Human angiotensinogen was used as an unisolated component of human blood plasma. The enzyme inhibition assay, see K. Poulsen, J. Burton, and E. Haber, Biochemistry, 12, 3877-3882 (1973), involved a two-hour incubation at 37° C. of the following final concentrations of reagents (0.25 ml total volume): 0.1 mGU/ml human renin; 0.05 ml human plasma; 6 mM disodium EDTA; 2.4 mM phenylmethylsulfonyl fluoride and 1.5 mM 8-hydroxyquinoline (angiotensinase inhibitors); 0.4 mg/ml bovine serum albumin; and 0.024 neomycin sulfate in 100 mM Tris-acetate buffer (pH 7.5). The enzymatic reaction was terminated by boiling the mixture for ten minutes. The quantity of angiotensin I formed was determined by radioimmunoassay, using the general method used in the angiotensin I radioimmunoassay kit of New England Nuclear.

[2] = system: Opiate receptor; test: Opiate Receptor Binding; details: rat brain membrane homogenates, tritium-labeled naloxone
Method: Opiate receptor binding of the compounds of this invention illustrated in the examples was tested by the following method.
A 2 ml portion of the homogenate is incubated at 25° with the test compound (10 mcM) and tritium-labeled naloxone (1.0 nM). After sixty minutes, samples were rapidly cooled on ice, collected over glass-fiber filters, washed with cold buffer, and solubilized by incubation with 1.0 ml of NCS tissue solubilizer. Samples were then prepared for counting in a liquid scintillation counter. Specific binding was calculated, with results expressed as percent inhibition at the test dose.

[3] = system: renal-ligated hypertensive rat; test: Renal-ligated Hypertensive Rat Assay; assay type: in vivo; details: renal-ligated rats
Method: Male Sprague Dawley rats aged 11 to 15 weeks old were used in this test. […] Test compounds were administered intra-arterially at a dose of 10 mg per kg of body weight, and blood pressure changes were monitored directly at 5, 10, and 15 minutes after injection.

[4] = system: Male Charles River mice; test: Hot-plate Assay; assay type: in vivo, mouse; details: subcutaneous, dose active if 50% of the animals showed analgesia
Method: (§1) The in vivo analgesic activity of the compounds of this invention illustrated in the examples was tested using the following hot-plate and writhing assays. Tyrosyl-N-(phenylpropyl)-D-alaninamide, a known analog of enkephalin, is active in these assays.
Male Charles River mice (COBS CD-1(ICR)BR) weighing 20 to 30 grams were used in this assay. Two groups of fourteen mice were placed individually in a restraining cylinder placed on a hot plate kept at 55° (±0.5°). The reaction time for each mouse to lick a foot or jump was measured three times at 20 minute intervals. Mice not responding within fifteen seconds were discarded. Twenty minutes after the last reaction experiment ten mice were given a dose of the test compound and ten were given 0.9% saline (each solution containing approximately 0.09 ml of a 1:1 mixture by volume of propylene glycol and polysorbate 80) subcutaneously. The response times of the animals were measured as before at 30, 60, 90, and 120 minute intervals after this injection. Mice not responding within 30 seconds were removed from the hot plate and given a response time of 30 seconds. […] The ED50 of each active test compound was then calculated. See N. B. Eddy, D. Leimbach, J. Pharmacol. and Exp. Therap., 107, 385-393 (1953).

[5] = system: Male Charles River albino mice; test: PBQ-Writhing Assay; assay type: in vivo, mouse; details: analgesia if writhes equal to or less than one-half the control median
Method: as §1
Male Charles River albino mice (CD-1(ICR)BR) weighing 20 to 30 grams were used in this assay. Thirty minutes after subcutaneous or intragastric administration (0.1 ml per 10 g of body weight) or fifteen minutes after intracerebroventricular administration (5 mcl total volume), a 0.025% solution of phenylbenzoquinone (PBQ) was injected intraperitoneally (0.1 ml per 10 g of body weight). Five minutes later each mouse was placed in a glass beaker and the number of writhes occurring in the next ten minutes was counted. (A writhe consists of dorsoflexion of the back, extension of the hindlimbs, and strong contraction of the abdominal musculature.) The test compound was considered to have produced analgesia in a mouse if the number of writhes elicited by PBQ was equal to or less than one-half the median number of writhes recorded for the saline-treated control group of mice that day. Results were expressed as the number of mice out of a possible ten in which the test compound produced analgesia. […]

[6] = system: sodium depleted Rhesus monkeys; test: Rhesus Monkey Blood Pressure Test; assay type: in vivo
Method: Rhesus monkeys were sodium depleted by means of a fruit diet in combination with intramuscular furosemide injections (0.5 mg per kg of body weight) given twice daily for four days. This procedure causes blood pressure to become dependent on plasma renin activity. J. Burton, R. J. Cody, Jr., A. J. Herd, and E. Haber, Proc. Natl. Acad. Sci. U. S. A., 77, 5476-5479 (1980). On the fifth day the animals were anesthetized with ketamine (100 mg administered intravenously). The femoral artery was cannulated for blood pressure measurement and a percutaneous venous cannula was inserted for test compound administration. The animals were allowed to recover from anesthesia and were restrained in a transparent plastic chair. […]

## CCN[C@@H](Cc1ccccc1)C(=O)N[C@H](CCSC)C(=O)NCC(=O)N[C@@H](Cc1ccccc1)C(=O)NC1C2CC3CC(C2)CC1C3.Cl (stereo partly drawn) [Example 15, N^α -ethyl-L-phenylalanyl-D-methionylglycyl-N-(2-adamantyl)-L-phenylalaninamide hydrochloride] (H-[NEtPhe][dM]GF-{NH(2-adamantyl)})
[1]
  renin inhibition activity: possess renin inhibition activity
[2]
  opiate receptor binding relative to prior art compounds of U.S. Pat. No. 4,273,704: significantly lower opiate receptor binding

## CSCC[C@@H](NC(=O)[C@@H](N)Cc1ccc2ccccc2c1)C(=O)NCC(=O)N[C@@H](Cc1ccccc1)C(=O)NC1C2CC3CC(C2)CC1C3.Cl (stereo partly drawn) [Example 29, 3-(2-naphthalenyl)-L-alanyl-D-methionylglycyl-N-(2-adamantyl)-L-phenylalaninamide hydrochloride] (H-[2Nal][dM]GF-{NH(2-adamantyl)})
[1]
  renin inhibition activity: possess renin inhibition activity
[2]
  opiate receptor binding relative to prior art compounds of U.S. Pat. No. 4,273,704: significantly lower opiate receptor binding

## CC(C)CC(=O)N[C@H](C(=O)N[C@H](C(=O)N[C@@H](CC(C)C)[C@@H](O)CC(=O)N[C@@H](C)C(=O)N[C@@H](CC(C)C)[C@@H](O)CC(=O)O)C(C)C)C(C)C [Pepstatin] (Isovaleryl-VV[Sta]A[Sta]-OH)
[1]
  renin inhibition activity: active
[3]
  plasma renin activity: significantly reduced
[3]; intra-arterial administration, significance P≤0.05
  mean arterial blood pressure: significantly reduced

## C[C@@H](NC(=O)[C@@H](N)Cc1ccc(O)cc1)C(=O)NCCCc1ccccc1 [Tyrosyl-N-(phenylpropyl)-D-alaninamide]
[4]
  analgesic activity, hot-plate: active
[5]
  analgesic activity, PBQ writhing: active

## C[C@H](CS)C(=O)N1CCC[C@H]1C(=O)O [captopril]
[6]; 0.1 mg per kg
  mean blood pressure: significantly lowered

## PHPFHFFVYK [RIP, prolylhistidylprolylphenylalanylhistidylphenylalanylphenylalanylvalyltyros yllysine]
[6]; 1.0 mg per kg
  mean blood pressure: significantly lowered

Reference: patent publication US4510085A, “Antihypertensive tetrapeptide amides” (G.D. Searle & Co., priority 1984, dated 1985)
